# Data as given in publication PMC11520566, “Discovery of pyrazole-based analogs as CDK2 inhibitors with apoptotic-inducing activity: design, synthesis and molecular dynamics study” (RSC Advances, 2024).
# Read-outs that look alike come from different tables or passages of the source.
# Assays:
# [1] = tested on: HOP-62; experiment: NCI 60 five dose assay, Non-small cell lung cancer; format: cell-based, human
# [2] = tested on: NCI 60 cell panel; experiment: NCI 60 five dose assay, subpanel and full panel means; format: cell-based, human
# [3] = tested on: PC-3; experiment: NCI 60 five dose assay, Prostate cancer; format: cell-based, human
# [4] = tested on: NCI/ADR-RES; experiment: NCI 60 five dose assay, Ovarian cancer; format: cell-based, human
# [5] = tested on: HCC-2998; experiment: NCI 60 five dose assay, Colon cancer; format: cell-based, human
# [6] = tested on: SNB-19; experiment: NCI 60 five dose assay, CNS cancer; format: cell-based, human
# [7] = tested on: KM12; experiment: NCI 60 single dose screen, Colon cancer; format: cell-based, human; conditions: single dose 10 μM
# Method: (§1) The newly synthesized pyrazoles 2a–g, 7a–d, 8a and b, 9, and 10 were submitted to the National Cancer Institute (NCI) Developmental Therapeutics Program (http://www.dtp.nci.nih.gov) for assessment of their potential antiproliferative activity against a panel of NCI 60 cancer cell lines. All compounds were approved for screening against the approved 60 cancer cell lines at a single dose of 10 μM. The human cancer cell lines were derived from 9 variant cancer types including leukemia, melanoma, lung, colon, CNS, ovarian, renal, prostate and breast cancers. The results are presented as percentage of growth inhibition (GI%) of the screened compounds against the full panel of cell lines.
# (§2) Under sterile conditions, the cell lines were grown in RPMI 1640 media (Gibco, NY, USA) supplemented with 10% fetal bovine serum (Biocell, CA, USA), and […] cell/mL was used to test the growth inhibition activity of the synthesized compounds. The compounds with concentrations ranging from 0.01 to 100 μM were prepared in phosphate buffer saline. Each compound was initially solubilized in dimethyl sulfoxide (DMSO); however, each final dilution contained less than 1% DMSO. Solutions of different concentrations (0.2 mL) were pipetted into the separate well of a microtiter tray in duplicate. Cell culture (1.8 mL) containing a cell population of […] cells per mL was pipetted into each well. Controls, containing only phosphate buffer saline and DMSO at identical dilutions, were also prepared in the same manner. These cultures were incubated in a humidified incubator at 37 °C. The incubator was supplied with 5% CO2 atmosphere. After 48 h, the cells in each well were diluted 10 times with saline and counted using a Coulter counter. The counts were corrected for the dilution.[34]
# [8] = tested on: HT29; experiment: NCI 60 single dose screen, Colon cancer; format: cell-based, human; conditions: single dose 10 μM
# Method: as §1, §2
# [9] = tested on: HCT-116; experiment: NCI 60 single dose screen, Colon cancer; format: cell-based, human; conditions: single dose 10 μM
# Method: as §1, §2
# [10] = tested on: ACHN; experiment: NCI 60 five dose assay, Renal cancer; format: cell-based, human
# [11] = tested on: CCRF-CEM; experiment: NCI 60 single dose screen, Leukemia; format: cell-based, human; conditions: single dose 10 μM
# Method: as §1, §2
# [12] = tested on: RPMI-8226; experiment: NCI 60 single dose screen, Leukemia; format: cell-based, human; conditions: single dose 10 μM
# Method: as §1, §2
# [13] = tested on: HCT-116 cell line; experiment: MTT cell viability assay; format: cell-based; conditions: Homo sapiens, read-out: IC50 (cytotoxicity, MTT)
# [14] = in vitro; conditions: human
# [15] = tested on: NCI-H522; experiment: NCI 60 five dose assay, Non-small cell lung cancer; format: cell-based, human
# [16] = tested on: LOX IMVI; experiment: NCI 60 five dose assay, Melanoma; format: cell-based, human
# [17] = tested on: RPMI-8226; experiment: NCI 60 five dose assay, Leukemia; format: cell-based, human
# [18] = tested on: MALME-3M; experiment: NCI 60 five dose assay, Melanoma; format: cell-based, human; conditions: for Percent Growth: MALME-3M
# [19] = Homo sapiens, read-out: LC50 (the source's name)
smiles,measurement,setting,value
"CC(=NNc1ccc(S(N)(=O)=O)cc1)c1ccc(NN=C2C(=O)NN=C2Nc2ccccc2)cc1 [Compound 4, 4-(2-(1-(4-(2-(5-oxo-3-(phenylamino)-1,5-dihydro-4H-pyrazol-4-ylidene)hydrazinyl)phenyl)ethylidene)hydrazinyl)benzene sulfonamide]",GI50,[1]; Homo sapiens,2.05 µM
same,CC50,[1]; [19],30.3 µM
same,Percent Growth,[1]; Log10 Concentration -4.0 Molar,-78%
same,Percent Growth,[1]; Log10 Concentration -5.0 Molar,-24%
same,Percent Growth,[1]; Log10 Concentration -6.0 Molar,84%
same,Percent Growth,[1]; Log10 Concentration -7.0 Molar,95%
same,Percent Growth,[1]; Log10 Concentration -8.0 Molar,91%
same,GI50,"[2]; Colon cancer subpanel, read-out: MG-MID for GI50",3.33 µM
same,GI50,"[2]; Homo sapiens, 60 cell, Breast cancer subpanel, read-out: MG-MID for GI50",2.36 µM
same,GI50,"[2]; Homo sapiens, 60 cell, CNS cancer subpanel, read-out: MG-MID for GI50",2.39 µM
same,GI50,"[2]; Homo sapiens, 60 cell, Colon cancer subpanel, read-out: MG-MID for GI50",3.33 µM
same,GI50,"[2]; Homo sapiens, 60 cell, Leukemia subpanel, read-out: MG-MID for GI50",2.42 µM
same,GI50,"[2]; Homo sapiens, 60 cell, Melanoma subpanel, read-out: MG-MID for GI50",2.47 µM
same,GI50,"[2]; Homo sapiens, 60 cell, Non-small cell lung cancer subpanel, read-out: MG-MID for GI50",4.79 µM
same,GI50,"[2]; Homo sapiens, 60 cell, Ovarian cancer subpanel, read-out: MG-MID for GI50",4.19 µM
same,GI50,"[2]; Homo sapiens, 60 cell, Prostate cancer subpanel, read-out: MG-MID for GI50",3.13 µM
same,GI50,"[2]; Homo sapiens, 60 cell, Renal cancer subpanel, read-out: MG-MID for GI50",9.18 µM
same,GI50,"[2]; Homo sapiens, 60 cell, against almost the whole panel of cancer cell lines, read-out: GI50 range",1.1 to 5.9 µM
same,GI50,"[2]; Homo sapiens, 60 cell, average over all cell lines, read-out: Full panel MG-MID (GI50)",3.81 µM
same,GI50,"[2]; Homo sapiens, 60 cell, range over the nine subpanels, read-out: subpanel GI50 (MG-MID) range",2.36 to 9.17 µM
same,GI50,"[2]; Melanoma subpanel, read-out: MG-MID for GI50",2.48 µM
same,GI50,"[2]; Prostate cancer subpanel, read-out: MG-MID for GI50",3.14 µM
same,Selectivity index,[2]; full panel MG-MID / Breast cancer subpanel MG-MID,1.614
same,Selectivity index,[2]; full panel MG-MID / CNS cancer subpanel MG-MID,1.595
same,Selectivity index,[2]; full panel MG-MID / Colon cancer subpanel MG-MID,1.143
same,Selectivity index,[2]; full panel MG-MID / Leukemia subpanel MG-MID,1.574
same,Selectivity index,[2]; full panel MG-MID / Melanoma subpanel MG-MID,1.539
same,Selectivity index,[2]; full panel MG-MID / Non-small cell lung cancer subpanel MG-MID,0.795
same,Selectivity index,[2]; full panel MG-MID / Ovarian cancer subpanel MG-MID,0.909
same,Selectivity index,[2]; full panel MG-MID / Prostate cancer subpanel MG-MID,1.215
same,Selectivity index,[2]; full panel MG-MID / Renal cancer subpanel MG-MID,0.415
same,GI50,[3]; Homo sapiens,3.06 µM
same,CC50,[3]; [19],35.8 µM
same,Percent Growth,[3]; Log10 Concentration -4.0 Molar,-95%
same,Percent Growth,[3]; Log10 Concentration -5.0 Molar,5%
same,Percent Growth,[3]; Log10 Concentration -6.0 Molar,92%
same,Percent Growth,[3]; Log10 Concentration -7.0 Molar,95%
same,Percent Growth,[3]; Log10 Concentration -8.0 Molar,93%
same,GI50,[4]; Homo sapiens,> 100 µM
same,CC50,[4]; [19],> 100 µM
same,Percent Growth,[4]; Log10 Concentration -4.0 Molar,65%
same,Percent Growth,[4]; Log10 Concentration -5.0 Molar,86%
same,Percent Growth,[4]; Log10 Concentration -6.0 Molar,96%
same,Percent Growth,[4]; Log10 Concentration -7.0 Molar,101%
same,Percent Growth,[4]; Log10 Concentration -8.0 Molar,97%
same,GI50,[5]; Homo sapiens,2.29 µM
same,CC50,[5]; [19],21.3 µM
same,Percent Growth,[5]; Log10 Concentration -4.0 Molar,-100%
same,Percent Growth,[5]; Log10 Concentration -5.0 Molar,-26%
same,Percent Growth,[5]; Log10 Concentration -6.0 Molar,93%
same,Percent Growth,[5]; Log10 Concentration -7.0 Molar,88%
same,Percent Growth,[5]; Log10 Concentration -8.0 Molar,80%
same,GI50,[6]; Homo sapiens,2.59 µM
same,CC50,[6]; [19],29.6 µM
same,Percent Growth,[6]; Log10 Concentration -4.0 Molar,-100%
same,Percent Growth,[6]; Log10 Concentration -5.0 Molar,-5%
same,Percent Growth,[6]; Log10 Concentration -6.0 Molar,89%
same,Percent Growth,[6]; Log10 Concentration -7.0 Molar,94%
same,Percent Growth,[6]; Log10 Concentration -8.0 Molar,91%
same,GI%,[7],96.31%
same,GI%,[8],95.46%
same,GI%,[9],99.70%
same,GI50,[10]; Homo sapiens,5.9 µM
same,CC50,[10]; [19],43 µM
same,Percent Growth,[10]; Log10 Concentration -4.0 Molar,-100%
same,Percent Growth,[10]; Log10 Concentration -5.0 Molar,36%
same,Percent Growth,[10]; Log10 Concentration -6.0 Molar,96%
same,Percent Growth,[10]; Log10 Concentration -7.0 Molar,104%
same,Percent Growth,[10]; Log10 Concentration -8.0 Molar,94%
same,GI%,[11],96.41%
same,GI%,[12],96.53%
same,IC50,[13],1.81 µM
same,IC50,[14],41.2 µM
same,GI50,[15]; Homo sapiens,2.17 µM
same,CC50,[15]; [19],74.8 µM
same,Percent Growth,[15]; Log10 Concentration -4.0 Molar,-52%
same,Percent Growth,[15]; Log10 Concentration -5.0 Molar,-36%
same,Percent Growth,[15]; Log10 Concentration -6.0 Molar,94%
same,Percent Growth,[15]; Log10 Concentration -7.0 Molar,97%
same,Percent Growth,[15]; Log10 Concentration -8.0 Molar,89%
same,GI50,[16]; Homo sapiens,2.13 µM
same,CC50,[16]; [19],8.81 µM
same,Percent Growth,[16]; Log10 Concentration -4.0 Molar,-100%
same,Percent Growth,[16]; Log10 Concentration -5.0 Molar,-59%
same,Percent Growth,[16]; Log10 Concentration -6.0 Molar,103%
same,Percent Growth,[16]; Log10 Concentration -7.0 Molar,102%
same,Percent Growth,[16]; Log10 Concentration -8.0 Molar,98%
same,GI50,[17]; Homo sapiens,3.36 µM
same,CC50,[17]; [19],> 100 µM
same,Percent Growth,[17]; Log10 Concentration -4.0 Molar,-15%
same,Percent Growth,[17]; Log10 Concentration -5.0 Molar,12%
same,Percent Growth,[17]; Log10 Concentration -6.0 Molar,92%
same,Percent Growth,[17]; Log10 Concentration -7.0 Molar,101%
same,Percent Growth,[17]; Log10 Concentration -8.0 Molar,101%
same,GI50,"[18]; Homo sapiens, Malme-3M",1.98 µM
same,CC50,"[18]; Homo sapiens, Malme-3M, read-out: LC50 (the source's name)",7.49 µM
same,Percent Growth,[18]; Log10 Concentration -4.0 Molar,-100%
same,Percent Growth,[18]; Log10 Concentration -5.0 Molar,-72%
same,Percent Growth,[18]; Log10 Concentration -6.0 Molar,102%
same,Percent Growth,[18]; Log10 Concentration -7.0 Molar,97%
same,Percent Growth,[18]; Log10 Concentration -8.0 Molar,89%
